Experiments:
excised rat lenses = conditions: concentrations typically micromolar; cited from earlier work
FHL 124 cells = test: Patch contraction assay (TGF-β-induced matrix contraction); format: cell-based, human
Experimental: FIG. 2. […] FHL 124 cells were seeded to form patches, maintained in serum-free medium before exposure to experimental conditions. All cultures were maintained for 72 hours in 5% EMEM (Eagle's minimal essential medium) alone or 5% FCS (fetal calf serum) EMEM supplemented with 10 ng/mL TGF-β1 or -β2±the MMP inhibitor GM6001 (25 μM). (A) Visual representations of patch assay cultures in different experimental conditions. (B) Quantified data showing differences in patch area. (C) Data showing differences in cell populations between patch areas (Coomassie blue dye was extracted and quantified from the same experiment as presented in (B)). In FIGS. 2(B) and (C) each left hand bar of the bar pairs reports the result in the absence of GM6001 (indicated as “−GM6001” in the key) and the right hand bar reports the result in the presence of GM6001 (indicated as “+GM6001” in the key). Data represent mean±SEM. * Indicates a significant difference from unstimulated control cells. # Indicates a significant difference between siMMP2 treated cells and SCR siRNA counterparts (p≦0.05, ANOVA with the Tukey test).
FIG. 6. MMP2 is important for TGF-β-induced matrix contraction. FHL 124 cells were seeded to form patches, then transfected with siRNA targeted to MMP2 or SCR negative control and maintained in Optimem™ (Invitrogen Corporation; Optimem is a modified EMEM, buffered with HEPES and sodium bicarbonate and supplemented with hypoxanthine, thymidine, sodium pyruvate, L-glutamine or Glutamax, trace elements and growth factor; the protein level is minimal (15 μg/mL) with insulin and transferrin being the only protein supplements; phenol red is included as a pH indicator). Patches were measured after 72 hours of culture with 10 ng/mL TGF-β1 or […]. (A) Visual representations of patch assay cultures in different experimental conditions. (B) Quantified data showing differences in patch area. (C) Data showing differences in cell populations between patch areas (Coomassie blue dye was extracted and quantified from the same experiment as presented in (B)). In FIGS. 6(B) and (C) each left hand bar of the bar pairs reports the result with Scramble siRNA (indicated as “Scramble SiRNA” in the key) and the right hand bar reports the result in the presence of MMP2 specific siRNA (indicated as “MMP2 SiRNA” in the key). The data in (B) and (C) represent the mean±SEM (n≦4). *Indicates a significant difference from unstimulated control cells. # Indicates a significant difference between siMMP2 treated cells and SCR siRNA counterparts (p≦0.05, ANOVA with the Tukey test).
FIG. 7. MMP2 inhibition using neutralising antibody ([…]) prevents TGF-β2 (10 ng/ml)-induced matrix contraction assessed by patch assay. In FIG. 7(B) each left hand bar of the bar pairs reports the result in the absence of the antibody (indicated as “−4 μg/ml Anti MMP2” in the key) and the right hand bar reports the result in the presence of the antibody (indicated as “+4 μg/ml Anti MMP2” in the key). Data expressed as Mean±SEM (n=3).
FHL 124 cells were seeded at four sites on a tissue culture dish at 5000 cells in 25 μl and maintained in EMEM supplemented with 5% FCS until confluent regions spanning about 5 mm developed (Wormstone et al, Exp. Eye Res. (2004), 78, pages 705-14). The medium was then replaced with non-supplemented EMEM, and the cells were cultured for a further 24 hours, followed by the removal of medium from four patch culture dishes fixed for 30 minutes with 4% formaldehyde at room temperature, followed by washing in PBS. The patches were used as a t=0 reference control.
All remaining cell cultures were exposed to experimental conditions for up to 3 days. Experiments were terminated after the appearance of cell-free regions (holes) within the central region of the patch, by fixation for 30 minutes with 4% formaldehyde at room temperature. […]

[1] = system: posterior capsule / capsular bag; conditions: in the absence of TGF-β; cited from earlier work
[2] = system: MMP2 gene expression in FHL 124 cells; test: Quantitative real-time PCR of MMP2 gene expression after siRNA transfection; format: cell-based, human; conditions: 100 nM siRNA
Experimental: FIG. 4. Validation of siRNA directed against specific inhibition of MMP2 for 24 hours using targeted siRNA techniques leads to a greater than 90% reduction in MMP2 gene expression. Furthermore, after 48 hours from initial MMP2 SiRNA transfection, MMP2 gene expression levels are still reduced by more than 80% in comparison with Scramble SiRNA controls. Each left hand bar of the bar pairs reports the result with Scramble siRNA (indicated as “Scramble SiRNA” in the key) and the right hand bar reports the result in the presence of MMP2 specific siRNA (indicated as “MMP2 SiRNA” in the key).
Total RNA was extracted from tissue and primary cultured cells (RNeasy micro kits; Qiagen, West Sussex, UK) in accordance with the manufacturer's instructions. In the initial step, RLT buffer (containing-mercaptoethanol) was added directly to phosphate buffered saline (PBS)-washed culture monolayers. Cultured cell lysates were removed with a cell scraper. Each sample was then transferred to an individual Eppendorf tube and passed through a needle and syringe. The remainder of the protocol was as described by the manufacturer and included a DNAse step. Quality control was maintained with an RNA analyzer (Bioanalyzer 2100; Agilent, West Lothian, UK) and an RNA lab chip (6000 Nano lab chip; Agilent) to ensure that 28S and 18S rRNA bands were clearly evident in total RNA samples. RNA was quantified with a spectrophotometer (ND-1000; NanoDrop, Wilmington, Del., USA). For the samples analyzed, the 260:280 ratio ranged from 1.8 to 2.2 (mean, 2.0). Where possible, total RNA was immediately used for cDNA generation or was briefly stored at −80° C. […]
Quantitative real-time PCR was used to analyze mRNA expression for all genes in FHL 124 cells (for a comprehensive description of MMPs and TIMPs primer/probe sets used, see Nuttall R. K. et al. (Mol Cancer Res (2003) 1, pages 333-345. Assuming 100% efficiency in the reverse transcription reaction, either 1 ng or 5 ng cDNA was used in real-time PCR reactions performed using a real-time PCR machine (ABI7700; Applied Biosystems). Reagent-based assays (Taq-Man Universal PCR Master Mix, No AmpErase UNG; Applied Biosystems) with all PCR reagents were used according to the manufacturer's instructions. The amount of amplification associated with priming from genomic DNA contamination was evaluated with control reverse transcription reactions containing all reagents without reverse transcriptase. […] The cycle number at which amplification entered the exponential phase (cycle threshold [CT]) was determined, and this number was used as an indicator for the amount of target RNA in each sample analyzed. […]

MMP2 = test: Gelatin zymography of MMP2 protein expression after siRNA transfection; format: cell-based, human; conditions: over a 72 hour period, zymography of culture media
Experimental: FIG. 5. SiMMP2 suppresses MMP2 protein expression. […] However, throughout this period the MMP2 level in the siMMP2 treated cells is about 50% of the siRNA control cells (SCR). In FIG. 5A each left hand bar of the bar pairs reports the result with Scramble siRNA (indicated as “Scramble SiRNA” in the key) and the right hand bar reports the result in the presence of MMP2 specific siRNA (indicated as “MMP2 SiRNA” in the key).
Gelatinolytic activity of culture media was analyzed by electrophoresis under non-reducing conditions on a 7% SDS-polyacrylamide gel containing 0.5 mg/mL denatured collagen type I (gelatin; Sigma) as previously described by Gavrilovic J. et al. (Cell Regul. (1990) 1, pages 1003-14). After electrophoresis, gels were washed twice in 2.5% Triton-X 100 for 15 minutes and then incubated for 4 hours at 37° C. in 100 mM Tris-HCl (pH 7.9), 30 mM CaCl2, and 0.02% sodium azide. The gels were stained with Coomassie brilliant blue (Sigma), and the images were captured with a gel scanner.
Custom made MMP2 siRNA: sense 5′-[…]-3′ (SEQ. ID. NO: 1), antisense 5′-[…]-3′ (SEQ. ID. NO: 2) and siRNA negative control (universal scrambled siRNA) were used. Both siRNAs were purchased from Ambion Ltd. (Huntingdon, UK). FHL 124 cells were seeded onto 35-mm culture dishes at either 25,000 cells in 1.5 ml for protein extraction or as four patches of 5000 cells, for patch assay analysis. […]

HLE-B3 = HLE-B3 cell line; cited from earlier work
[3] = 25 μM GM6001 in presence of 10 ng/ml TGF-β1 or TGF-β2, 72 hours
[4] = siMMP2 transfected, 10 ng/ml TGF-β1 or TGF-β2, 72 hours

O=C(NO)[C@@H](Cc1ccccc1)NS(=O)(=O)c1ccc(-c2ccccc2)cc1 [(2R)-[(4-biphenylylsulfonyl)amino]-N-hydroxyl-3-phenylpropionamide]
occurrence of TGF-β-induced anterior subcapsular cataracts (ASCs) (excised rat lenses): prevents the occurrence

CNC(=O)[C@H](Cc1c[nH]c2ccccc12)NC(=O)[C@@H](CC(=O)NO)CC(C)C [GM6001, N-[(2R)-2-(hydroxamidocarbonylmethyl)-4-methylpentanoyl]-L-trypto-phan methylamide]
effect on patch area relative to control (FHL 124 cells; 25 μM GM6001 alone (no TGF-β), 72 hours, vs control 5% FCS EMEM group): no significant effect on patch area | formation of cell free zones (FHL 124 cells; [3]): suppressed the formation of cell free zones | patch area vs un-stimulated control group (FHL 124 cells; [3]): did not significantly differ from the un-stimulated control group | TGF-β-induced matrix contraction (FHL 124 cells; GM6001 25 μM, 10 ng/mL TGF-β1 or -β2, 72 hours (FIG. 2 legend)): prevents TGF-β-induced matrix contraction | total protein content by Coomassie blue dye extraction (cell population) (FHL 124 cells; patches ± 10 ng/ml TGF-β1 or -β2 ± GM6001, 72 hours): no significant changes | capsular bag contraction [1]: suppress consequent capsular bag contraction | cell migration onto the posterior capsule surface [1]: suppress cell migration onto the posterior capsule surface | occurrence of TGF-β-induced anterior subcapsular cataracts (ASCs) (excised rat lenses): prevents the occurrence

siMMP2: Custom made MMP2 siRNA: sense 5′-GGACACACUAAAGAAGAUGTT-3′, antisense 5′-CAUCUUCUUUAGUGUGUCCTT-3′, purchased from Ambion (chemistry not given here)
TGF-β-induced contraction (FHL 124 cells; [4]): did not show any evidence of contraction | patch area vs non-TGF-β-treated controls (FHL 124 cells; [4]): did not differ significantly from non-TGF-β-treated controls | patch area vs SCR control (FHL 124 cells; siRNA transfected, non-stimulated conditions (no TGF-β)): did not show a statistical difference in patch area from the SCR control | reduction in MMP2 gene expression ([2]; 24 hours in transfection conditions, vs negative control siRNA): greater than 90% | reduction in MMP2 gene expression ([2]; 24 hours in transfection conditions, vs negative control siRNA, listed as siRNA against MMP2): 90% | reduction in MMP2 gene expression ([2]; 48 hours from transfection, vs Scramble siRNA controls): more than 80% | reduction in MMP2 gene expression ([2]; 48 hours from transfection, vs Scramble siRNA controls, listed as siRNA against MMP2): > 70% | MMP2 protein level relative to Scrambled siRNA control (MMP2): about 50% | MMP2 protein level relative to Scrambled siRNA control (MMP2; listed as siRNA against MMP2): approximately 50%

O=C(O)[C@@H](Cc1ccccc1)NS(=O)(=O)c1ccc(-c2ccccc2)cc1 [(2R)-2-[(4-biphenylylsulphonyl)amino]-3-phenylpropionic acid]
TGF-β1-induced morphological change in the cells (HLE-B3): blocked
